Assay results taken from patent US10702556B2, “Compositions and methods for inducing angiogenesis” (MINOVIA THERAPEUTICS LTD., priority 2012, dated 2020).

Tested on: mouse aortic rings
Experiment: Mouse aortic ring sprouting (ex-vivo angiogenesis)
Format: cell-based
Method: Thoracic aorta were removed from female C57/BL mice and cut into 0.5 mm rings. Aortic rings were incubated in serum-free medium and either left untreated or treated with 0.5 μM Rotenone for 4 hours. To assess mitochondria effect on sprouting of aortic rings, half of the non-treated rings were washed and incubated with 25 μg of C57/BL mouse placental mitochondria in 2 ml serum-free medium. After 24 hours the rings were embedded in rat tail collagen, one ring per well in a 96 wells plate. After 8 days in culture the level of sprouting was evaluated by counting the number of vessels per ring.
The effect of VEGF, mitochondria and mitochondria+VEGF on sprouting of aortic rings in-vitro was examined Mouse aortic rings were prepared as described in example 7 and were either left un-treated (NT), treated with 25 μg mouse placental mitochondria in 2 ml OptiMem medium for 24 h (Mito), incubated in OptiMem medium containing 2.5% FBS and 30 ng/ml mouse VEGF for 48 h (VEGF) or treated with both mitochondria and VEGF (VEGF+Mito). The number of new blood vessels sprouting from the aortic rings was counted on day 8.
Mouse aortic rings were prepared as described in example 7 and were either left un-treated or treated with increasing amounts (2-350 μg) of mouse placental mitochondria in 2 ml OptiMem medium for 24 h. The number of new blood vessels sprouting from the aortic rings was counted on day 7.
The effect of mitochondria on the number of blood vessels was evaluated in a mouse aortic ring model. Mouse aortic rings were prepared as described in example 7 and were either left un-treated (Control), treated for 24 h with 25 μg of mouse placental mitochondria (Mito), treated with mitochondria that were inhibited by 2 μM of mitochondria complex I inhibitor Rotenone or treated with mitochondria that were inhibited with 5 μM of the ATP Synthase inhibitor Oligomycin for 24 h. The number of new blood vessels sprouting from the aortic rings was counted on day 8.

| Compound | number of vessels per ring (sprouting) (0.5 μM Rotenone for 4 hours, 8 days in culture) | number of new blood vessels sprouting from the aortic rings, comparison between treated groups (25 μg mitochondria 24 h, 30 ng/ml mouse VEGF 48 h, or both, day 8) |
| --- | --- | --- |
| C=C(C)[C@H]1Cc2c(ccc3c2O[C@@H]2COc4cc(OC)c(OC)cc4[C@@H]2C3=O)O1 [Rotenone] | blocked the sprouting almost completely | – |
| VEGF | – | no significant difference |
